Test results as given in patent US9248085B2, “Effective depilatory article” (The Procter & Gamble Company, priority 2011, dated 2016).

Assay: Hair removal from the skin and skin irritation by thioglycolate salts (statement, no method)
Format: in vivo
Conditions: even at low doses

SMILES: O=C([O-])CS.[K+] [potassium thioglycolate]
- hair removal from the skin: effective at removing hair from the skin
